Test results from patent US12297190B2, “Modulators of STING (stimulator of interferon genes)” (PFIZER INC., priority 2019, dated 2025).
Counter-ions that a name gives are not always drawn.

Experiments:
STING [1] = target: T1, STING (Homo sapiens, UniProt Q86WV6, G230A/H232R/R293Q/R71H); assay: Phosphorylation of IRF3: THP-1 cell ELISA; format: cell-based; settings: THP-1 cells, 3 hours incubation, phospho-IRF3 ELISA; read-out: THP-1 CELL P-IRF3 EC50
T1 construct: host or cells: THP-1 and THP-1 Lucia ISG cells
Protocol: Phosphorylation of IRF3: THP-1 Cell ELISA
STING activation results in recruitment of TBK1 and phosphorylation of IRF3 transcription factor before induction of type I interferons. THP-1 cells (InvivoGen) were grown in RPMI media plus 2 mM L-glutamine, 10% fetal bovine serum, and 0.5% Pen-Strep. 10^4 cells were seeded in 96-well plates and incubated overnight 37° C., 5% CO2. Compounds serial diluted compounds in media (final 0.5% DMSO) were added to the cells and incubated for an additional 3 hours. After incubation, the plates were centrifuged at 2000 rpm for 5 min. The cells were then lysed in 100 μl RIPA buffer and vortexed for 30 minutes at room temperature. 25 μl of lysate was then transferred to clear polystyrene High Bind plates that had been previously coated with mouse anti-human IRF-3 capture antibody (BD Pharmigen), and allowed to incubate at 4° C. for 16 hours. The plates were then washed and incubated with rabbit anti-phospho-IRF3 detection antibody (Cell Signaling Technologies) for 1.5 hours at room temperature. Finally, an HRP-linked secondary antibody (Cell Signaling Technologies) was added for 30 min before the Glo Substrate Reagent (R&D Systems) was used generate the luminescent signal. The signal was measured using a Perkin-Elmer Envision microplate reader. Data were normalized to “% effect” with a positive control STING agonist that was known to maximize the phosphorylated IRF3 signal and the negative control was DMSO.

R232-STING = R232-STING (Homo sapiens, UniProt Q86WV6, H232R); assay: biochemical
STING [2] = target: T1, STING; assay: Interferon-β induction: THP-1 Lucia ISG reporter cell line; format: cell-based; settings: THP-1 Lucia ISG cells, 24 hours incubation, luciferase reporter; read-out: THP-1 Lucia ISG Cells IFN-β EC50
Protocol: Interferon-β Induction: THP-1 ISG Reporter Cell Line
THP-1 Lucia™ ISG cells (InvivoGen) express the secreted luciferase “Lucia” reporter gene under the control of an IRF-inducible composite promotor comprised of five interferon response elements. THP-1 Lucia™ ISG cells were grown in RPMI media plus 2 mM L-glutamine, 10% fetal bovine serum, and 0.5% Pen-Strep. Hygromycin B and Zeocin were present to maintain stable transfection. 10^4 cells were seeded in 96-well plates and incubated overnight 37° C., 5% CO2. 50 μL of serial diluted compounds in media (final 0.5% DMSO) was and incubated for an additional 24 hours. After incubation, the plates were centrifuged at 2000 rpm for 10 min. 50 μl of cell culture supernatant of each well was transferred to a white, opaque 96-well plate. One pouch of QUANTI-Luc™ (InvivoGen) powder was prepared in 25 mL of endotoxin-free water and 100 μL of prepared warm QUANTI-Luc solution were added to each well containing the supernatant. The luminescence signal was measured using a Perkin-Elmer Envision microplate reader. Data were normalized to “% effect” with a positive control STING agonist that was known to maximize the luciferase signal and the negative control DMSO.

Sequence of R232-STING (Q86WV6 155-341 H232R): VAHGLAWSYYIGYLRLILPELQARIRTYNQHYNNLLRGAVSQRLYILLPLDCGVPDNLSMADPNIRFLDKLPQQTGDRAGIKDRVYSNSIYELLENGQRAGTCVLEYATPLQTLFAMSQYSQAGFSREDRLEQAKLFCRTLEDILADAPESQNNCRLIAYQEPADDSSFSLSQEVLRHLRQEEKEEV
T1 sequence (Q86WV6 whole entry R71H/G230A/H232R/R293Q): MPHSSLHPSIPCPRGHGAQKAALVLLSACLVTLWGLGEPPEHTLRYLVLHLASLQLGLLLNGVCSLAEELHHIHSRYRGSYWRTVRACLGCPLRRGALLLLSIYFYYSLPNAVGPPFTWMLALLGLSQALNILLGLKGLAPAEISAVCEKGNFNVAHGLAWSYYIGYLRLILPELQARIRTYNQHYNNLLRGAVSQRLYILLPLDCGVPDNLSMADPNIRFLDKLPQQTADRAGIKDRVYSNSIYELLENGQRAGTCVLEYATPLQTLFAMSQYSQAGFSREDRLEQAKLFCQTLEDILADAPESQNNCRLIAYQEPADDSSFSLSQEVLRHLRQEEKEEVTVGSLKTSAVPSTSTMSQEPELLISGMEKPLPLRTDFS

EC50 (STING [1])	Ki (R232-STING)	EC50 (STING [2])	SMILES
890 nM	6.9 nM	590 nM	Cc1nn(CCO)c(-c2nnc(-c3nc(C(N)=O)cc4c3cnn4C)[nH]2)c1O [Example V01, 4-{5-[4-hydroxy-1-(2-hydroxyethyl)-3-methyl-1H-pyrazol-5-yl]-4H-1,2,4-triazol-3-yl}-1-methyl-1H-pyrazolo[4,3-c]pyridine-6-carboxamide]
2820 nM	29.8 nM	2520 nM	Cc1nn(CCCO)c(-c2nc(-c3nc(C(N)=O)cc4c3cnn4C)c(CN)o2)c1O [Example U03]
3750 nM	23.6 nM	5010 nM	CCn1nc(CO)cc1-c1nc(-c2nc(C(N)=O)cc3c2cnn3C)n(C)n1 [Example AB01, 4-{3-[1-ethyl-3-(hydroxymethyl)-1H-pyrazol-5-yl]-1-methyl-1H-1,2,4-triazol-5-yl}-1-methyl-1H-pyrazolo[4,3-c]pyridine-6-carboxamide]
10800 nM	87.6 nM	7170 nM	CCn1nc(C)cc1-c1csc(-c2cc(C(N)=O)cc3c2cnn3C)n1 [Example H01, 4-[4-(1-ethyl-3-methyl-1H-pyrazol-5-yl)-1,3-thiazol-2-yl]-1-methyl-1H-indazole-6-carboxamide]
≥ 100000 nM	230 nM	45300 nM	CCn1nc(C)cc1-c1n[nH]c(-c2cc(C(N)=O)cc3nn(C)cc23)n1 [Example C01, 4-[3-(1-ethyl-3-methyl-1H-pyrazol-5-yl)-1H-1,2,4-triazol-5-yl]-2-methyl-2H-indazole-6-carboxamide]
340 nM	0.6 nM	380 nM	CCn1nc(C)c(O)c1-c1nc(-c2nc(C(N)=O)cc3c2cnn3C)c(CN)s1 [Example X01, (4-(6-carbamoyl-1-methyl-1H-pyrazolo[4,3-c]pyridin-4-yl)-2-(1-ethyl-4-hydroxy-3-methyl-1H-pyrazol-5-yl)thiazol-5-yl)methanaminium formate]
> 33300 nM	142 nM	> 33300 nM	CCn1nc(C)cc1-c1n[nH]c(-c2cc(C(N)=O)cc3c2cnn3CCN2CCOC3(CCCC3)C2)n1 [YY28, 4-[3-(1-ethyl-3-methyl-1H-pyrazol-5-yl)-1H-1,2,4-triazol-5-yl]-1-[2-(6-oxa-9-azaspiro[4.5]decan-9-yl)ethyl]-1H-indazole-6-carboxamide]
630 nM	6.8 nM	760 nM	CCn1nc(C)c(F)c1-c1nc(-c2nc(C(N)=O)cc3c2cnn3C)n(C)n1 [Example J03]
≥ 100000 nM		76900 nM	CCn1nc(C)cc1-c1nc(-c2cc(C(N)=O)cc3c2cnn3C)nn1COP(=O)(O)O [Example N01, [3-(6-carbamoyl-1-methyl-1H-indazol-4-yl)-5-(1-ethyl-3-methyl-1H-pyrazol-5-yl)-1H-1,2,4-triazol-1-yl]methyl dihydrogenphosphate]
	> 990 nM		CCn1nc(C)cc1-c1n[nH]c(-c2cc(C(N)=O)cc3c2cnn3CCN2CCOC[C@@H]2CO)n1 [ZZZ116, 4-[3-(1-ethyl-3-methyl-1H-pyrazol-5-yl)-1H-1,2,4-triazol-5-yl]-1-{2-[(3S)-3-(hydroxymethyl)morpholin-4-yl]ethyl}-1H-indazole-6-carboxamide]
	850 nM		CCn1nc(C)cc1-c1nnc(-c2cc(C(N)=O)cc3c2cnn3CCCN(C)C)[nH]1 [ZZZ007, 1-[3-(dimethylamino)propyl]-4-[5-(1-ethyl-3-methyl-1H-pyrazol-5-yl)-4H-1,2,4-triazol-3-yl]-1H-indazole-6-carboxamide]
	917 nM		CCn1nc(C)cc1-c1n[nH]c(-c2cc(C(N)=O)cc3c2cnn3CCN2C[C@H](C)OC[C@H]2C)n1 (racemic) [ZZZ089, 1-{2-[(2S,5R)-2,5-dimethylmorpholin-4-yl]ethyl}-4-[3-(1-ethyl-3-methyl-1H-pyrazol-5-yl)-1H-1,2,4-triazol-5-yl]-1H-indazole-6-carboxamide]
	> 990 nM		CCn1nc(C)cc1-c1nnc(-c2cc(C(N)=O)cc3c2cnn3CCN2CC(C)C2)[nH]1 [ZZZ036, 4-[5-(1-ethyl-3-methyl-1H-pyrazol-5-yl)-4H-1,2,4-triazol-3-yl]-1-[2-(3-methylazetidin-1-yl)ethyl]-1H-indazole-6-carboxamide]
	650 nM		CCn1nc(C)cc1-c1nnc(-c2cc(C(N)=O)cc3c2cnn3CCC2CCNCC2)[nH]1 [ZZZ073, 4-[5-(1-ethyl-3-methyl-1H-pyrazol-5-yl)-4H-1,2,4-triazol-3-yl]-1-[2-(piperidin-4-yl)ethyl]-1H-indazole-6-carboxamide]
	> 990 nM		CCn1nc(C)c(F)c1-c1nnc(-c2cc(C(N)=O)cn3c(CN)ncc23)[nH]1 [ZZZ086, 3-(aminomethyl)-8-[5-(1-ethyl-4-fluoro-3-methyl-1H-pyrazol-5-yl)-4H-1,2,4-triazol-3-yl]imidazo[1,5-c]pyridine-6-carboxamide]
	538 nM		CCn1nc(C)cc1-c1n[nH]c(-c2cc(C(N)=O)cc3c2cnn3CCN2CCO[C@H](CO)C2)n1 [ZZZ118, 4-[3-(1-ethyl-3-methyl-1H-pyrazol-5-yl)-1H-1,2,4-triazol-5-yl]-1-{2-[(2S)-2-(hydroxymethyl)morpholin-4-yl]ethyl}-1H-indazole-6-carboxamide]
	> 990 nM		CCn1nc(C)cc1-c1nnc(-c2cc(C(N)=O)cc3c2cnn3CC[C@@H]2CCCN(C)C2)[nH]1 (racemic) [ZZZ042, 4-[5-(1-ethyl-3-methyl-1H-pyrazol-5-yl)-4H-1,2,4-triazol-3-yl]-1-{2-[(3S)-1-methylpiperidin-3-yl]ethyl}-1H-indazole-6-carboxamide]
	> 990 nM		CCn1nc(C)cc1-c1nnc(-c2cc(C(N)=O)cc3c2cnn3C[C@H]2[C@@H]3CNC[C@@H]32)[nH]1 [ZZZ058, 1-{[(1R,5S,6r)-3-azabicyclo[3.1.0]hexan-6-yl]methyl}-4-[5-(1-ethyl-3-methyl-1H-pyrazol-5-yl)-4H-1,2,4-triazol-3-yl]-1H-indazole-6-carboxamide]
	> 990 nM		CCc1nc(C)[nH]c1-c1n[nH]c(-c2cc(C(N)=O)cc3c2cnn3C)n1 [ZZZ055, 4-[3-(4-ethyl-2-methyl-1H-imidazol-5-yl)-1H-1,2,4-triazol-5-yl]-1-methyl-1H-indazole-6-carboxamide]
	882 nM		CCn1nc(C)cc1-c1nnc(-c2cc(C(N)=O)cc3c2cnn3[C@H]2CCCNC2)[nH]1 [ZZZ061, 4-[5-(1-ethyl-3-methyl-1H-pyrazol-5-yl)-4H-1,2,4-triazol-3-yl]-1-[(3S)-piperidin-3-yl]-1H-indazole-6-carboxamide]
	> 990 nM		CCn1nc(C)cc1-c1n[nH]c(-c2nc(C(N)=O)cc3cn[nH]c23)n1 [ZZZ010, 7-[3-(1-ethyl-3-methyl-1H-pyrazol-5-yl)-1H-1,2,4-triazol-5-yl]-1H-pyrazolo[3,4-c]pyridine-5-carboxamide]
	> 990 nM		CCn1nc(CN)cc1-c1nc(-c2nc(C(N)=O)cc3c2cnn3C)n(C)n1 [ZZZ121, 4-{3-[3-(aminomethyl)-1-ethyl-1H-pyrazol-5-yl]-1-methyl-1H-1,2,4-triazol-5-yl}-1-methyl-1H-pyrazolo[4,3-c]pyridine-6-carboxamide]
	661 nM		CCn1nc(C)cc1-c1n[nH]c(-c2cc(C(N)=O)cc3c2cnn3CCN2C[C@@H](C)OC[C@H]2C)n1 [ZZZ097, 1-{2-[(2R,5R)-2,5-dimethylmorpholin-4-yl]ethyl}-4-[3-(1-ethyl-3-methyl-1H-pyrazol-5-yl)-1H-1,2,4-triazol-5-yl]-1H-indazole-6-carboxamide]
